According to patent publication US10766869B2, “Triazoles for the treatment of demyelinating dieases” (Vertex Pharmaceuticals Incorporated, priority 2015, dated 2020):

Tested on: primary rat mixed cortical cells
Test: In vitro myelination assay (MBP positive myelin strands, fold myelin pixels above background)
Assay type: cell-based
Details: Rattus norvegicus, read-out: Fold myelin pixels above background relative to baseline of no added compound; for fold induction at 1 µM: 1.0 μM compound; for fold induction at 10 µM: 10.0 μM compound
Outline: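 Compounds at 1.0 and 10.0 μM were incubated 14 days with dissociated P1 rat cortical cells, which were then fixed and immunostained for MBP. Myelination was scored as fold MBP myelin pixels per well over the no-compound baseline.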

Compound | fold induction at 1 µM | fold induction at 10 µM
CCc1cc(Nc2ncn(-c3ccc(F)c(C)c3)n2)cc(N2CCN(C3COC3)CC2)c1 [Compound 829, N-[3-ethyl-5-[4-(oxetan-3-yl)piperazin-1-yl]phenyl]-1-(4-fluoro-3-methyl-phenyl)-1,2,4-triazol-3-amine] | 1 to 10 | ≤ 1
CC(C)Oc1cc(Nc2ncn(-c3cc(F)cc(F)c3)n2)cc(N2CC(N3CCOCC3)C2)c1 [Compound 830, 1-(3,5-difluorophenyl)-N-[3-isopropoxy-5-(3-morpholinoazetidin-1-yl)phenyl]-1,2,4-triazol-3-amine] | 100 to 1000 | 10 to 100
Cc1cc(Nc2ncn(-c3cc(F)cc(F)c3)n2)cc(N2CCN3CC(F)(F)C[C@H]3C2)c1 [Compound 831, N-[3-[(8aS)-7,7-difluoro-13,4,6,8,8a-hexahydropyrrolo[1,2-a]pyrazin-2-yl]-5-methyl-phenyl]-1-(3,5-difluorophenyl)-1,2,4-triazol-3-amine] | 10 to 100 | 10 to 100
Cc1cc(Nc2ncn(-c3cc(F)cc(F)c3)n2)cc(OCCn2cccn2)c1 [Compound 832, 1-(3,5-difluorophenyl)-N-[3-methyl-5-(2-pyrazol-1-ylethoxy)phenyl]-1,2,4-triazol-3-amine] | 10 to 100 | 10 to 100
Cc1cc(Nc2ncn(-c3cccc(C(F)F)c3)n2)cc(N2CCN(C3COC3)CC2)c1 [Compound 833, 1-[3-(difluoromethyl)phenyl]-N-[3-methyl-5-[4-(oxetan-3-yl)piperazin-1-yl]phenyl]-1,2,4-triazol-3-amine] | 1 to 10 | ≤ 1
Cc1cc(CN2CCN(C3COC3)CC2)c(F)c(Nc2ncn(-c3ccc(F)c(F)c3)n2)c1 [Compound 834, 1-(3,4-difluorophenyl)-N-[2-fluoro-5-methyl-3-[[4-(oxetan-3-yl)piperazin-1-yl]methyl]phenyl]-1,2,4-triazol-3-amine] | 1 to 10 | 1 to 10
N#Cc1cc(Nc2ncn(-c3cc(F)cc(F)c3)n2)cc(N2CCOCC2)c1 [Compound 835, 3-[[1-(3,5-difluorophenyl)-1,2,4-triazol-3-yl]amino]-5-morpholino-benzonitrile] | 1 to 10 | 10 to 100
Cc1cc(Nc2ncn(-c3ccc(C)c(F)c3)n2)cc(N2CCN(C3COC3)CC2)c1 [Compound 836, 1-(3-fluoro-4-methyl-phenyl)-N-[3-methyl-5-[4-(oxetan-3-yl)piperazin-1-yl]phenyl]-1,2,4-triazol-3-amine] | 1 to 10 | 1 to 10
Cc1cc(Nc2ncn(-c3cccc(C(F)(F)F)c3)n2)nc(N2CCOCC2)c1 [Compound 837, 4-methyl-6-morpholino-N-[1-[3-(trifluoromethyl)phenyl]-1,2,4-triazol-3-yl]pyridin-2-amine] | 1 to 10 | 10 to 100
Cc1cc(Nc2ncn(-c3ccccc3)n2)cc(Nc2ncco2)c1 [Compound 838, 5-methyl-N1-oxazol-2-yl-N3-(1-phenyl-1,2,4-triazol-3-yl)benzene-1,3-diamine] | ≤ 1 | ≤ 1
COCC1CCN(c2cc(C(F)(F)F)cc(Nc3ncn(-c4cc(F)cc(F)c4)n3)n2)CC1 [Compound 839, N-[1-(3,5-difluorophenyl)-1,2,4-triazol-3-yl]-6-[4-(methoxymethyl)-1-piperidyl]-4-(trifluoromethyl)pyridin-2-amine] | 1 to 10 | ≤ 1
Cc1cc(CN2CCN(C3COC3)CC2)cc(Nc2ncn(-c3ccc(F)c(F)c3)n2)c1 [Compound 840, 1-(3,4-difluorophenyl)-N-[3-methyl-5-[[4-(oxetan-3-yl)piperazin-1-yl]methyl]phenyl]-1,2,4-triazol-3-amine] | 10 to 100 | 10 to 100
COc1ccc(-n2cnc(Nc3cc(C)cc(N4CC(N5CCOCC5)C4)c3)n2)cc1 [Compound 841, 1-(4-methoxyphenyl)-N-[3-methyl-5-(3-morpholinoazetidin-1-yl)phenyl]-1,2,4-triazol-3-amine] | 1 to 10 | 10 to 100
N#Cc1cc(Nc2ncn(-c3cccnc3)n2)cc(N2CCN(C3COC3)CC2)c1 [Compound 842, 3-[4-(oxetan-3-yl)piperazin-1-yl]-5-[[1-(3-pyridyl)-1,2,4-triazol-3-yl]amino]benzonitrile] | 1 to 10 | ≤ 1
Cc1cc(Nc2ncn(-c3cc(F)cc(F)c3)n2)nc(N2CC3CCOC3C2)c1 (stereo not drawn) [Compound 843, 6-(2,3,3a,4,6,6a-hexahydrofuro[2,3-c]pyrrol-5-yl)-N-[1-(3,5-difluorophenyl)-1,2,4-triazol-3-yl]-4-methyl-pyridin-2-amine] | 1 to 10 | 1 to 10
Cc1cc(Nc2ncn(-c3ccc(F)c(F)c3)n2)cc(OCCN2CCOCC2)c1 [Compound 845, 1-(3,4-difluorophenyl)-N-[3-methyl-5-(2-morpholinoethoxy)phenyl]-1,2,4-triazol-3-amine] | 10 to 100 | 1 to 10
Cc1cc(Nc2ncn(-c3cnccn3)n2)cc(C2(C)CN(C)C(=O)O2)c1 (stereo not drawn) [Compound 846, 3,5-dimethyl-5-[3-methyl-5-[(1-pyrazin-2-yl-1,2,4-triazol-3-yl)amino]phenyl]oxazolidin-2-one] | 10 to 100 | 1 to 10
Fc1cc(F)cc(-n2cnc(Nc3cc(N4CCN(C5COC5)CC4)cc(F)n3)n2)c1 [Compound 847, N-[1-(3,5-difluorophenyl)-1,2,4-triazol-3-yl]-6-fluoro-4-[4-(oxetan-3-yl)piperazin-1-yl]pyridin-2-amine] | 1 to 10 | 1 to 10
Cc1cc(Nc2ncn(-c3cccc(C(F)F)c3)n2)nc(N2CCN(C3COC3)CC2)c1 [Compound 848, N-[1-[3-(difluoromethyl)phenyl]-1,2,4-triazol-3-yl]-4-methyl-6-[4-(oxetan-3-yl)piperazin-1-yl]pyridin-2-amine] | 10 to 100 | 10 to 100
CC1(N2CCN(c3cc(C(F)F)cc(Nc4ncn(-c5ccc(F)c(F)c5)n4)n3)CC2)COC1 [Compound 849, 4-(difluoromethyl)-N-[1-(3,4-difluorophenyl)-1,2,4-triazol-3-yl]-6-[4-(3-methyloxetan-3-yl)piperazin-1-yl]pyridin-2-amine] | 10 to 100 | 10 to 100
COCCCN1CCN(c2cc(C)cc(Nc3ncn(-c4cc(F)cc(F)c4)n3)c2)CC1 [Compound 850, 1-(3,5-difluorophenyl)-N-[3-[4-(3-methoxypropyl)piperazin-1-yl]-5-methyl-phenyl]-1,2,4-triazol-3-amine] | 10 to 100 | ≤ 1
Cc1cc(Nc2ncn(-c3cc(F)cc(F)c3)n2)cc(N2CCC3(CCCO3)CC2)c1 [Compound 851, 1-(3,5-difluorophenyl)-N-[3-methyl-5-(1-oxa-8-azaspiro[4.5]decan-8-yl)phenyl]-1,2,4-triazol-3-amine] | 1 to 10 | 10 to 100
Cc1cc(Nc2ncn(-c3cc(F)cc(NCCO)c3)n2)cc(N2CC(F)C2)c1 [Compound 852, 2-[3-fluoro-5-[3-[3-(3-fluoroazetidin-1-yl)-5-methyl-anilino]-1,2,4-triazol-1-yl]anilino]ethanol] | 1 to 10 | ≤ 1
N#Cc1cc(Nc2ncn(-c3cc(F)cc(F)c3)n2)nc(N2CCN(C3COC3)CC2)c1 [Compound 853, 2-[[1-(3,5-difluorophenyl)-1,2,4-triazol-3-yl]amino]-6-[4-(oxetan-3-yl)piperazin-1-yl]pyridine-4-carbonitrile] | 1 to 10 | 10 to 100
Cc1cc(Nc2ncn(-c3cccc(C(F)(F)F)c3)n2)cc(N2CCC(N3CCOCC3)CC2)c1 [Compound 854, N-[3-methyl-5-(4-morpholino-1-piperidyl)phenyl]-1-[3-(trifluoromethyl)phenyl]-1,2,4-triazol-3-amine] | 100 to 1000 | 10 to 100
COCCC1CCN(c2cc(C)cc(Nc3ncn(-c4cc(F)cc(F)c4)n3)n2)CC1 [Compound 855, N-[1-(3,5-difluorophenyl)-1,2,4-triazol-3-yl]-6-[4-(2-methoxyethyl)-1-piperidyl]4-methyl-pyridin-2-amine] | 1 to 10 | 1 to 10
Cc1cc(Nc2ncn(-c3cc(F)cc(F)c3)n2)c(F)c(OC2CCOC2)c1 (stereo not drawn) [Compound 856, 1-(3,5-difluorophenyl)-N-(2-fluoro-5-methyl-3-tetrahydrofuran-3-yloxy-phenyl)-1,2,4-triazol-3-amine] | 10 to 100 | ≤ 1
Cc1cc(Nc2ncn(-c3cc(F)cc(F)c3)n2)cc(N2CC(N3C[C@@H](C)O[C@H](C)C3)C2)c1 [Compound 857, 1-(3,5-difluorophenyl)-N-[3-[3-[(2R,6R)-2,6-dimethylmorpholin-4-yl]azetidin-1-yl]-5-methyl-phenyl]-1,2,4-triazol-3-amine] | 10 to 100 | 10 to 100
Cc1cc(NCCN2CCOCC2)cc(Nc2ncn(-c3cc(F)cc(F)c3)n2)c1 [Compound 858, N1-[1-(3,5-difluorophenyl)-1,2,4-triazol-3-yl]-5-methyl-N3-(2-morpholinoethyl)benzene-1,3-diamine] | 10 to 100 | ≤ 1
Fc1ccc(-n2cnc(Nc3cc(C(F)F)cc(N4CCN(C5COC5)CC4)n3)n2)cc1Cl [Compound 859, N-[1-(3-chloro-4-fluoro-phenyl)-1,2,4-triazol-3-yl]-4-(difluoromethyl)-6-[4-(oxetan-3-yl)piperazin-1-yl]pyridin-2-amine] | 1 to 10 | 1 to 10
